In PubChem BioAssay (NCI) one finds GI50 and TGI data, which are given here for 13 compounds.

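Step 1: Grow cells in 96-well plates. Step 2: Expose to compound for 48 hours at 5 concentrations. Step 3: Interpolate endpoints linearly; if unreached, use highest concentration. At the GI50, growth is halved. TGI: total growth inhibition.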

Holding throughout (test): DTP human tumour cell line panel, 48 h
Assay [1] concerns CCRF-CEM leukemia.
Assay [2] concerns MALME-3M melanoma.
The test system of assay [3] is OVCAR-3 ovarian.
For assay [4], the system named is RPMI-8226 leukemia.
Assay [5] has as its system SF-295 CNS.
The test system of assay [6] is SK-MEL-2 melanoma.
The subject of assay [7] is SK-MEL-28 melanoma.
Assay [8] concerns SK-OV-3 ovarian.
Assay [9] concerns SNB-19 CNS.
Assay [10] relates to UACC-62 melanoma.

`CCOC(=O)c1nc2sc(Cl)cn2c1/C=N/N=C(N)N`: the GI50 (commonly the concentration giving 50% growth inhibition) in assay [1] was 25.2 µM; in [2] it was 17.8 µM; in assay [3] it was 21.5 µM; in assay [4] it was 13 µM; in [5] it was 27.7 µM; in [6] it was 36.5 µM. For the same compound, the GI50 is 18.2 µM in assay [7], 44.3 µM in [8], 30 µM in [9] and 17.6 µM in [10]. Besides, the TGI (usually the concentration at which net growth stops) was > 64.2 µM in assay [1]; 37.9 µM in [2]; 42.1 µM in assay [3]; > 51.5 µM in assay [4]; > 52.3 µM in [5]; > 87.2 µM in [6]. Also, the TGI is 51 µM in [7], 98.3 µM in assay [8], > 100 µM in [9] and 34.5 µM in assay [10].
Consider `O=C1c2c[n+](Cc3ccccc3)ccc2-c2nc3ccccc3c3ccnc1c23`, for which the GI50 in assay [1] was 0.951 µM; in assay [2], 0.499 µM; in [3], 0.379 µM; in assay [4] it was 1.06 µM; in [5], 0.585 µM; in [6], 0.646 µM. For the same compound, the GI50 in assay [7] was 0.954 µM; in assay [8], 0.568 µM; in [9], 0.389 µM; in assay [10] it was 0.594 µM. The TGI in [1] was 2.81 µM; in assay [2], 1.02 µM; in assay [3], 1.87 µM; in assay [4], 6.76 µM; in [5] it was 5.71 µM; in assay [6], 1.77 µM. Besides, the total growth inhibition concentration (TGI) was determined as 3.95 µM in assay [7], 2.56 µM in [8], 2.55 µM in assay [9] and 1.78 µM in assay [10].
As to `Cc1nc2ccccc2c(/C=C/c2ccc(C(F)(F)F)cc2)c1C(=O)/C=C/c1ccccc1`, the GI50 in assay [1] was 0.675 µM; in assay [2], 1.6 µM; in assay [3], 1.2 µM; in [4], 0.999 µM; in assay [5], 1.77 µM; in assay [6] it was 1.76 µM. Besides, the GI50 in assay [7] is 1.77 µM; in assay [8] it was 1.54 µM; in assay [9], 1.64 µM; in assay [10] it was 1.49 µM. Besides, the TGI is > 100 µM in [1]; 3.02 µM in [2]; 2.52 µM in [3]; 4.64 µM in [4]; 3.22 µM in assay [5]; 3.64 µM in assay [6]. The concentration for total growth inhibition (TGI) in assay [7] turned out to be 3.22 µM; in assay [8] it was 2.98 µM; in assay [9], 3.01 µM; in assay [10] it was 3 µM.
Turning to `CN(C)Cc1c[nH]c2nc[nH]c(=O)c12`, the TGI in assay [1] was 51 µM; in [2], > 100 µM; in assay [3], > 100 µM; in [4], 59.4 µM; in assay [5], > 100 µM; in assay [6] it was > 100 µM. The TGI is > 100 µM in assay [7], > 100 µM in assay [8], > 100 µM in [9] and 39.7 µM in assay [10].
`CC[P+](C)(C)CC`: the TGI in assay [1], in assay [2], in [3], in assay [4], in assay [5] and in assay [6] was > 100 µM each time. For the same compound, the TGI in assay [7], in assay [8], in assay [9] and in [10] was > 100 µM throughout.
In the case of `Oc1ccc(Br)cc1C=Nc1ccc(Oc2ccc(N=Cc3cc(Br)ccc3O)cc2)cc1`, the TGI in assay [1], in [2], in assay [3], in assay [4], in assay [5] and in [6] was > 19.6 µM each time. The TGI in [7], in assay [8], in [9] and in assay [10] was > 19.6 µM each time.
For the compound `CC(=O)OC1CCC2(C)C(=CCC3C2CCC2(C)C3CC3OC4(CCC(C)CN4)C(C)C32)C1` (stereo not given), the TGI in [1], in [2], in assay [3], in assay [4], in assay [5] and in assay [6] was > 100 µM throughout. Besides, the TGI in [7], in [8], in assay [9] and in assay [10] was > 100 µM throughout.
Take `COc1ccc(C)cc1-c1ccc(-c2cc(C)ccc2OC)o1`: the TGI in assay [1], in assay [2], in assay [3], in assay [4], in assay [5] and in assay [6] was > 100 µM in each case. Moreover, the TGI in assay [7], in assay [8], in assay [9] and in assay [10] was > 100 µM throughout.
For `O=C1/C(=C/c2ccc([N+](=O)[O-])s2)Oc2ccc(Br)cc21`, the GI50 in [1] is 0.31 µM; in assay [2], 0.347 µM; in assay [3] it was 0.207 µM; in assay [4], 0.278 µM; in [5], 1.24 µM; in [6], 0.231 µM. The GI50 was 0.302 µM in assay [7], 2.09 µM in assay [8], 0.42 µM in assay [9] and 0.297 µM in [10]. In addition, the TGI in assay [1] amounted to 0.961 µM; in assay [2], 1.6 µM; in assay [3] it was 0.409 µM; in [4], 1.14 µM; in assay [5], 3.35 µM; in [6], 0.509 µM. The TGI turned out to be 0.951 µM in [7], 5.04 µM in assay [8], 2.13 µM in assay [9] and 0.963 µM in assay [10].
Take `Nc1ncnc2c1ncn2C1OC(F)(COS(N)(=O)=O)C(O)C1O` (stereo not given): the GI50 in assay [1], in assay [2], in [3], in [4], in assay [5] and in [6] was > 100 µM throughout. Also, the GI50 in assay [7], in assay [8], in [9] and in [10] was > 100 µM each time. For the same compound, the TGI in assay [1], in [2], in assay [3], in [4], in [5] and in assay [6] was > 100 µM throughout. Also, the TGI in [7], in assay [8], in assay [9] and in [10] was > 100 µM each time.
Regarding `CC12CC(Br)(Br)C(=O)C3C1CCCC32`, the TGI in assay [1] came out at 9.43 µM; in [2], 9.5 µM; in [3], 7.08 µM; in assay [4], 9.74 µM; in assay [5], 29.5 µM; in assay [6], 30.4 µM. Further, the TGI worked out at 6.61 µM in assay [7], 30.8 µM in assay [8], 28.8 µM in assay [9] and 19.7 µM in assay [10].
Turning to `C(#Cc1ccccc1C#Cc1cnccn1)c1cnccn1`, the GI50 in [1] was 32.3 µM; in assay [2], 29.8 µM; in assay [3], 21.5 µM; in assay [4] it was 21.2 µM; in assay [5] it was 30.3 µM; in assay [6], > 38.9 µM. The GI50 in assay [7] was 46.9 µM; in [8], 56 µM; in [9] it was > 100 µM; in assay [10] it was 17.5 µM. The TGI in assay [1] was > 100 µM; in assay [2], 80.4 µM; in assay [3], > 63.1 µM; in assay [4] it was > 63.4 µM; in assay [5] it was > 74 µM; in assay [6], > 61.1 µM. Moreover, the TGI in assay [7] was > 100 µM; in assay [8] it was > 100 µM; in assay [9], > 100 µM; in assay [10], 51.4 µM.
On to `COc1cccc2c1C(=O)c1c(O)c3c(c(O)c1C2=O)C[C@@](O)(C(=O)CO)C[C@@H]3OC1CC2C(OCN2CN2COC3C(C)OC(O[C@H]4C[C@](O)(C(=O)CO)Cc5c(O)c6c(c(O)c54)C(=O)c4c(OC)cccc4C6=O)CC32)C(C)O1` (stereo not given in full), for which the GI50 was 0.000537 µM in assay [1]; 0.0149 µM in assay [2]; 0.0142 µM in assay [3]; 0.0017 µM in [4]; 0.0024 µM in [5]; 0.0179 µM in assay [6]. Further, the GI50 was 0.016 µM in assay [7], 0.00699 µM in assay [8], 0.00292 µM in assay [9] and 0.0032 µM in assay [10]. The concentration for total growth inhibition (TGI) in assay [1] is 0.0221 µM; in assay [2], 0.0399 µM; in assay [3], 0.0534 µM; in assay [4], 0.0108 µM; in assay [5], 0.0259 µM; in [6] it was 0.0591 µM. Further, the TGI in assay [7] worked out at 0.0378 µM; in assay [8] it was 0.0207 µM; in assay [9], 0.0256 µM; in assay [10] it was 0.0159 µM.
